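Test compounds were applied to cells in 96-well plates for 48 hours at 5 doses. TGI is the concentration that stops growth completely.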
Assays:
Test in all cases: NCI anticancer screen, dose series, 48 h
T-47D breast = system: T-47D breast
MDA-N = system: MDA-N
NCI/ADR-RES ovarian = system: NCI/ADR-RES ovarian
SN12C renal = system: SN12C renal
HT29 colon = system: HT29 colon
SR leukemia = system: SR leukemia
SF-539 CNS = system: SF-539 CNS
A549 NSCLC = system: A549 NSCLC
DU-145 prostate = system: DU-145 prostate
OVCAR-8 ovarian = system: OVCAR-8 ovarian
ACHN renal = system: ACHN renal
PC-3 prostate = system: PC-3 prostate
MDA-MB-231 breast = system: MDA-MB-231 breast
HOP-62 NSCLC = system: HOP-62 NSCLC
SNB-19 CNS = system: SNB-19 CNS
MALME-3M melanoma = system: MALME-3M melanoma
SNB-75 CNS = system: SNB-75 CNS
NCI-H522 lung = system: NCI-H522 lung
HS 578T breast = system: HS 578T breast
UO-31 renal = system: UO-31 renal
M14 melanoma = system: M14 melanoma
COLO 205 colon = system: COLO 205 colon
A498 renal = system: A498 renal
RXF 393 renal = system: RXF 393 renal
SK-MEL-28 melanoma = system: SK-MEL-28 melanoma
LOX IMVI melanoma = system: LOX IMVI melanoma
SK-OV-3 ovarian = system: SK-OV-3 ovarian
K-562 leukemia = system: K-562 leukemia
SF-268 CNS = system: SF-268 CNS
CAKI-1 renal = system: CAKI-1 renal
SK-MEL-5 melanoma = system: SK-MEL-5 melanoma
MDA-MB-435 = system: MDA-MB-435
OVCAR-5 ovarian = system: OVCAR-5 ovarian
SW-620 colon = system: SW-620 colon
NCI-H226 lung = system: NCI-H226 lung
U251 CNS = system: U251 CNS
IGROV1 ovarian = system: IGROV1 ovarian
NCI-H23 lung = system: NCI-H23 lung
UACC-257 melanoma = system: UACC-257 melanoma
MOLT-4 leukemia = system: MOLT-4 leukemia
786-0 renal = system: 786-0 renal
HL-60(TB) leukemia = system: HL-60(TB) leukemia
CCRF-CEM leukemia = system: CCRF-CEM leukemia
MCF7 breast = system: MCF7 breast
SF-295 CNS = system: SF-295 CNS
EKVX NSCLC = system: EKVX NSCLC
RPMI-8226 leukemia = system: RPMI-8226 leukemia
HCT-116 colon = system: HCT-116 colon
KM12 colon = system: KM12 colon
SK-MEL-2 melanoma = system: SK-MEL-2 melanoma
UACC-62 melanoma = system: UACC-62 melanoma

Measured: TGI

O=C(Nc1cccc([N+](=O)[O-])c1)c1n[nH]n(-c2cccc([N+](=O)[O-])c2)c1=O
> 100 µM: all assays above

Source: PubChem BioAssay (NCI)
